Plant injury data for three compounds are collected here from patent US20100267561A1, “HERBICIDAL PYRIDAZINONE DERIVATIVES” (priority 2007, published 2010).

The test deals with rice (Oryza sativa). The test can be described thus: Test B flooded paddy test plant response. The test is classed as in vivo. Particulars: Oryza sativa, read-out: Plant response rating, Rice; for plant injury at 62 g/ha: 62 g ai/ha; for plant injury at 250 g/ha: 250 g ai/ha. Summed up: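 Step one: raise plants to 2 leaves. Step two: flood pots 3 cm over the soil and apply compound into the water, keeping this depth. Step three: after 13–15 greenhouse days, score visually versus controls, 0–100, where 100 means complete control.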

Where [1] appears, read: Flood (flooded paddy test), scale 0 to 100, 0 no effect, 100 complete control.

SMILES strings stand for the structures. Where two headings read alike, the source gives them in different places.

As to `Cc1cc(-c2ccc(Br)cc2)nn1-c1c(O)cnn(C2CCCCO2)c1=O` (centres unmarked) [Compound 77, 4-[3-(4-bromophenyl)-5-methyl-1H-pyrazol-1-yl]-5-hydroxy-2-(tetrahydro-2H-pyran-2-yl)-3(2H)-pyridazinone], under setting [1], the plant injury at 62 g/ha turned out to be 0% and the plant injury at 250 g/ha came out at 0%. The plant injury at 125 g/ha (Flood (flooded paddy test), 125 g ai/ha, scale 0 to 100, 0 no effect, 100 complete control) is 0%. Besides, for the setting “Flood, 31 g ai/ha, scale 0 to 100”, the plant injury at 31 g/ha turned out to be 0%.
In the case of `Cc1cn(-c2ccc(C(F)(F)F)cc2)nc1-c1c(O)cnn(C)c1=O` [Compound 85, 5-hydroxy-2-methyl-4-[4-methyl-1-[4-(trifluoromethyl)phenyl]-1H-pyrazol-3-yl]-3(2H)-pyridazinone], the plant injury at 250 g/ha under setting [1] was 0%. Also, the plant injury at 62 g/ha (Flood, scale 0 to 100) turned out to be 0%.
Regarding `Cn1ncc(O)c(-c2nn(-c3ccc(C(F)(F)F)cc3)cc2Br)c1=O` [Compound 87, 4-[4-bromo-1-[4-(trifluoromethyl)phenyl]-1H-pyrazol-3-yl]-5-hydroxy-2-methyl-3(2H)-pyridazinone], the plant injury at 250 g/ha under setting [1] came to 0%. Moreover, the plant injury at 62 g/ha (Flood, scale 0 to 100) is 0%.
